Data as given in US8536332B2, “Modulating signal transduction pathways with substituted pyridol [2,3-b] pyrazines” (Aeterna Zentaris GmbH, priority 2007, dated 2013).

Compared with `COc1cc(-c2ccc3ncc(NC(=O)NC4CCN(C(=O)OCc5ccccc5)CC4)nc3n2)ccc1O` [Compound 606, 4-{3-[6-(4-Hydroxy-3-methoxy-phenyl)-pyrido[2,3-b]pyrazin-3-yl]-ureido}-piperidine-1-carboxylic acid benzyl ester], `COc1cc(-c2ccc3ncc(NC(=O)NC4CCCCC4)nc3n2)ccc1O` [Compound 17, 1-Cyclohexyl-3-[6-(4-hydroxy-3-methoxy-phenyl)-pyrido[2,3-b]pyrazin-3-yl]-urea] is higher in melting point: 210 to 212 °C for the first, 232 to 235 °C for the second.

First: CNC(=O)Nc1cnc2ccc(-c3ccc(O)c(OC)c3)nc2n1 [Compound 172, 1-[6-(4-Hydroxy-3-methoxy-phenyl)-pyrido[2,3-b]pyrazin-3-yl]-3-methyl-urea]
Second: COc1cc(-c2ccc3ncc(NC(=S)NC(C)(C)C)nc3n2)ccc1O [Compound 652, 1-tert-Butyl-3-[6-(4-hydroxy-3-methoxy-phenyl)-pyrido[2,3-b]pyrazin-3-yl]-thiourea]
The melting point of the first is higher: 242 to 244 °C for the first, 213 to 215 °C for the second.

Compared with `O=C(Nc1cnc2ccc(-c3cc(Cl)c(O)c(Cl)c3)nc2n1)NC1CCCCC1` [Compound 558, 1-Cyclohexyl-3-[6-(3,5-dichloro-4-hydroxy-phenyl)-pyrido[2,3-b]pyrazin-3-yl]-urea], `CCCNC(=O)Nc1cnc2ccc(-c3cc(Cl)c(O)c(Cl)c3)nc2n1` [Compound 551, 1-[6-(3,5-Dichloro-4-hydroxy-phenyl)-pyrido[2,3-b]pyrazin-3-yl]-3-propyl-urea] is lower in melting point: 272 to 275 °C for the first, 265 to 268 °C for the second.

First: CCCNC(=S)Nc1ccc2ncc(Nc3cc(OC)c(OC)c(OC)c3)nc2n1 [Compound 501, 1-Propyl-3-[3-(3,4,5-trimethoxy-phenylamino)-pyrido[2,3-b]pyrazin-6-yl]-thiourea]
Second: COCCCNC(=S)Nc1ccc2ncc(Nc3cc(OC)c(OC)c(OC)c3)nc2n1 [Compound 710, 1-(3-Methoxy-propyl)-3-[3-(3,4,5-trimethoxy-phenylamino)-pyrido[2,3-b]pyrazin-6-yl]-thiourea]
The melting point of the first is lower: 243 °C for the first, 246 °C for the second.

Compared with `CCNC(=O)Nc1ccc2ncc(-c3ccc(OC)cc3C)nc2n1` [Compound 98, 1-Ethyl-3-[3-(4-methoxy-2-methyl-phenyl)-pyrido[2,3-b]pyrazin-6-yl]-urea], `CCNC(=O)Nc1ccc2ncc(-c3cc(F)ccc3OC)nc2n1` [Compound 93, 1-Ethyl-3-[3-(5-fluoro-2-methoxy-phenyl)-pyrido[2,3-b]pyrazin-6-yl]-urea] is higher in melting point: 223 to 225 °C for the first, 253 to 258 °C for the second.

Going from `CCOC(=O)CCNC(=S)Nc1ccc2ncc(Nc3cc(OC)c(OC)c(OC)c3)nc2n1` [Compound 709, 3-{3-[3-(3,4,5-Trimethoxy-phenylamino)-pyrido[2,3-b]pyrazin-6-yl]-thioureido}-propionic acid ethyl ester] to `CCNC(=S)Nc1ccc2ncc(N(C)c3cc(OC)c(OC)c(OC)c3)nc2n1` [Compound 706, 1-Ethyl-3-{3-[methyl-(3,4,5-trimethoxy-phenyl)-amino]-pyrido[2,3-b]pyrazin-6-yl}-thiourea], the melting point falls from 244 °C to 222 °C.

First: CCNC(=O)Nc1ccc2ncc(-c3ccc(Cl)cc3)nc2n1 [Compound 122, 1-[3-(4-Chloro-phenyl)-pyrido[2,3-b]pyrazin-6-yl]-3-ethyl-urea]
Second: CCNC(=O)Nc1ccc2ncc(-c3ccccc3Cl)nc2n1 [Compound 104, 1-[3-(2-Chloro-phenyl)-pyrido[2,3-b]pyrazin-6-yl]-3-ethyl-urea]
The melting point of the first is lower: 244 to 247 °C for the first, 310 °C for the second.

First: CCNC(=O)Nc1ccc2ncc(-c3cc(C)cc(Br)c3OCc3ccccc3)nc2n1 [Compound 109, 1-[3-(2-Benzyloxy-3-bromo-5-methyl-phenyl)-pyrido[2,3-b]pyrazin-6-yl]-3-ethyl-urea]
Second: CCNC(=O)Nc1ccc2ncc(-c3ccccc3C(F)(F)F)nc2n1 [Compound 97, 1-Ethyl-3-[3-(2-trifluoromethyl-phenyl)-pyrido[2,3-b]pyrazin-6-yl]-urea]
The melting point of the first is lower: 236 to 238 °C for the first, 240 to 243 °C for the second.

Compared with `COc1ccc(-c2ccc3ncc(NC(=O)NCCc4ccccc4)nc3n2)cc1OC` [Compound 577, 1-[6-(3,4-Dimethoxy-phenyl)-pyrido[2,3-b]pyrazin-3-yl]-3-phenethyl-urea], `COc1ccc(-c2ccc3ncc(NC(=O)NC(C)(C)C)nc3n2)cc1OC` [Compound 568, 1-tert-Butyl-3-[6-(3,4-dimethoxy-phenyl)-pyrido[2,3-b]pyrazin-3-yl]-urea] is lower in melting point: 254 to 257 °C for the first, 230 to 233 °C for the second.

First: COc1ccc(-c2ccc3ncc(NC(=O)NC4CCCC4)nc3n2)cc1OC [Compound 576, 1-Cyclopentyl-3-[6-(3,4-dimethoxy-phenyl)-pyrido[2,3-b]pyrazin-3-yl]-urea]
Second: COc1cc(Nc2cnc3ccc(NC(=S)NC4CCCCCCC4)nc3n2)cc(OC)c1OC [Compound 691, 1-Cyclooctyl-3-[3-(3,4,5-trimethoxy-phenylamino)-pyrido[2,3-b]pyrazin-6-yl]-thiourea]
The melting point of the first is higher: 261 to 264 °C for the first, 250 °C for the second.

Going from `CCNC(=O)Nc1ccc2ncc(Nc3ccc(OC)c(O)c3)nc2n1` [Compound 156, 1-Ethyl-3-[3-(3-hydroxy-4-methoxy-phenylamino)-pyrido[2,3-b]pyrazin-6-yl]-urea] to `CCNC(=O)Nc1cnc2ccc(Nc3ccc(O)c(OC)c3)nc2n1` [Compound 21, 1-Ethyl-3-[6-(4-hydroxy-3-methoxy-phenylamino)-pyrido[2,3-b]pyrazin-3-yl]-urea], the melting point falls from 281 °C to 255 °C.

First: CCNC(=O)Nc1ccc2ncc(-c3cc(C)cc(C)c3)nc2n1 [Compound 82, 1-[3-(3,5-Dimethyl-phenyl)-pyrido[2,3-b]pyrazin-6-yl]-3-ethyl-urea]
Second: CCNC(=O)Nc1ccc2ncc(-c3ccsc3)nc2n1 [Compound 141, 1-Ethyl-3-(3-thiophen-3-yl-pyrido[2,3-b]pyrazin-6-yl)-urea]
The melting point of the first is higher: 255.3 to 257.9 °C for the first, 250 °C for the second.

`CCNC(=O)Nc1ccc2ncc(-c3ccc(C(=O)OC)c(F)c3)nc2n1` [Compound 143, 4-[6-(3-Ethyl-ureido)-pyrido[2,3-b]pyrazin-3-yl]-2-fluoro-benzoic acid methyl ester] and `CCNC(=O)Nc1ccc2ncc(-c3cccc([N+](=O)[O-])c3)nc2n1` [Compound 101, 1-Ethyl-3-[3-(3-nitro-phenyl)-pyrido[2,3-b]pyrazin-6-yl]-urea] cannot be ordered by melting point: 250 to 252 °C for the first, 249 to 253 °C for the second.

For `O=C(Nc1cnc2ccc(-c3cc(Cl)c(O)c(Cl)c3)nc2n1)Nc1ccccc1[N+](=O)[O-]` [Compound 561, 1-[6-(3,5-Dichloro-4-hydroxy-phenyl)-pyrido[2,3-b]pyrazin-3-yl]-3-(2-nitro-phenyl)-urea], the melting point was > 300 °C.
In the case of `O=C(Nc1ccc(N2C(=O)C=CC2=O)cc1)Nc1cnc2ccc(-c3cc(Cl)c(O)c(Cl)c3)nc2n1` [Compound 565, 1-[6-(3,5-Dichloro-4-hydroxy-phenyl)-pyrido[2,3-b]pyrazin-3-yl]-3-[4-(2,5-dioxo-2,5-dihydro-pyrrol-1-yl)-phenyl]-urea], the melting point is reported as > 300 °C.
For `CCNC(=O)Nc1ccc2ncc(-c3cccc4c3oc3ccccc34)nc2n1` [Compound 71, 1-(3-Dibenzofuran-4-yl-pyrido[2,3-b]pyrazin-6-yl)-3-ethyl-urea], the melting point was > 300 °C.
